Data set [1] deals with T1, human FXRα (Homo sapiens, UniProt Q96RI1).
T1 sequence (Q96RI1 1-486): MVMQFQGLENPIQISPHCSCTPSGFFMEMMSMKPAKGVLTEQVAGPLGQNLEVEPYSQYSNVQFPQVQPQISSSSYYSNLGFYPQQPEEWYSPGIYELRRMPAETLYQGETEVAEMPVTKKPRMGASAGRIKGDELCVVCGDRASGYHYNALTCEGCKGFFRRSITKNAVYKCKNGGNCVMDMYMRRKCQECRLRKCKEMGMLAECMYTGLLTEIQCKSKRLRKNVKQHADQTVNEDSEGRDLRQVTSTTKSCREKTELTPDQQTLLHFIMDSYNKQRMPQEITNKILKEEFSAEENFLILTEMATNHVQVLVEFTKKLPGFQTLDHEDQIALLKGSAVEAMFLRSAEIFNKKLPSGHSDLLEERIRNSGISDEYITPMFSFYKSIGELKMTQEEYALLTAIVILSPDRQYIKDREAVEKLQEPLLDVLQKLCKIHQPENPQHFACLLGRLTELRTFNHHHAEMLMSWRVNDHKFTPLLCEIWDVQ
T1 sequence (P19793 1-462 partner): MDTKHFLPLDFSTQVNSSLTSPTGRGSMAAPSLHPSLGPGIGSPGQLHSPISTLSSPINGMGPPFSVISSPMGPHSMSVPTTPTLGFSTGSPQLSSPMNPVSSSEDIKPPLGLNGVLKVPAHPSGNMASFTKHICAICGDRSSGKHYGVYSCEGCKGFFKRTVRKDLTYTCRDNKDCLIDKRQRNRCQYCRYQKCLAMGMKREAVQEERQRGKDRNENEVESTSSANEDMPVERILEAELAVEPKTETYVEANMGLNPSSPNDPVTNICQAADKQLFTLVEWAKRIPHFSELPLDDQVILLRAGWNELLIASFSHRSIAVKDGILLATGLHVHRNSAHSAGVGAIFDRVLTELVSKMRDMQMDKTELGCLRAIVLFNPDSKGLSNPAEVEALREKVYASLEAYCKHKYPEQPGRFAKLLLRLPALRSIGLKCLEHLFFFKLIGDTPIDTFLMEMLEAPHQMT
In kind it is cell-based.

Data set [2] concerns the target T2, medaka FXRα2 (Oryzias latipes, UniProt H2M6M7).
T2 sequence (H2M6M7 1-485): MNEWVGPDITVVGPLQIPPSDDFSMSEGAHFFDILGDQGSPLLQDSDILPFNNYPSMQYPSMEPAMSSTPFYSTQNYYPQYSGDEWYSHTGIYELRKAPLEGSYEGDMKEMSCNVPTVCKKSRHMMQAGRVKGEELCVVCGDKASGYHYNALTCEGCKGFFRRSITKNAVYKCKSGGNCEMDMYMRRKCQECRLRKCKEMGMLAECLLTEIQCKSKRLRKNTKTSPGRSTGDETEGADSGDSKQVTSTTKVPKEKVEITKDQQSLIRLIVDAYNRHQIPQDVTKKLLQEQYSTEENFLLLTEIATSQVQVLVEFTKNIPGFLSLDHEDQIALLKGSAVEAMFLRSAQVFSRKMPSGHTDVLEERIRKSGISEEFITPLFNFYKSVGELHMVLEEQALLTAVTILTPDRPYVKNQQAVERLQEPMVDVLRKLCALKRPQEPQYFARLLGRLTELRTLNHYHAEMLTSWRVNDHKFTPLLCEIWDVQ
As to the kind of experiment: Transient transactivation luciferase assay in HEK293T cells, agonist mode. It counts as cell-based.

A further data set has as its system medaka larvae. Description: Toxicity to medaka larvae during in vivo exposure. The arrangement: species or system Medaka (Oryzias latipes). The conditions noted are these: between 0.5 and 10 µM.
In data set [3] the test system is Human FXRa. Conditions: Agonists, cited from earlier work.
The target in data set [4] is T1, human FXRα. As to the kind of experiment: cell-based.
Data set [5] deals with Human FXRa. Conditions: Antagonists, cited from earlier work; for AC50: Tox21 qHTS, ref US EPA CompTox Chemicals Dashboard; for Tox21 Results Human FXRa Activity Human FXRa: Hsu et al. 2016. Background: qHTS replaces the single test concentration by a dilution series.
For data set [6], the target named is T2, medaka FXRα2. As to the kind of experiment: Transient transactivation luciferase assay in HEK293T cells, antagonist mode. In kind it is cell-based. Conditions: Antagonists, in the presence of GW4064.
Data set [7] has as its target NR box of human PGC1α fused to the yeast Gal4 DNA-binding domain (pM-PGC1α) (human) (UniProt Q9UBK2). As to the kind of experiment: two-hybrid.
Data set [8] has the same target. Description: two-hybrid. This is another data set of the same source.
[9] abbreviates: Agonists, HEK293T, 24 h, listed as maleic hydrazide.
The mark [10] stands for this setting: Tox21 qHTS, ref US EPA CompTox Chemicals Dashboard.
Setting [11] is: Agonists, HEK293T, 24 h, listed as prometon.
[12] abbreviates: read-out: Current Study Human FXRa AC50.

Entries after “also recorded” stand apart in the source; their conditions may differ. Where two headings read alike, the source gives them in different places.

Chain of NR box of human PGC1α fused to the yeast Gal4 DNA-binding domain (pM-PGC1α) (human) (Q9UBK2 whole entry, the tested form may be a part): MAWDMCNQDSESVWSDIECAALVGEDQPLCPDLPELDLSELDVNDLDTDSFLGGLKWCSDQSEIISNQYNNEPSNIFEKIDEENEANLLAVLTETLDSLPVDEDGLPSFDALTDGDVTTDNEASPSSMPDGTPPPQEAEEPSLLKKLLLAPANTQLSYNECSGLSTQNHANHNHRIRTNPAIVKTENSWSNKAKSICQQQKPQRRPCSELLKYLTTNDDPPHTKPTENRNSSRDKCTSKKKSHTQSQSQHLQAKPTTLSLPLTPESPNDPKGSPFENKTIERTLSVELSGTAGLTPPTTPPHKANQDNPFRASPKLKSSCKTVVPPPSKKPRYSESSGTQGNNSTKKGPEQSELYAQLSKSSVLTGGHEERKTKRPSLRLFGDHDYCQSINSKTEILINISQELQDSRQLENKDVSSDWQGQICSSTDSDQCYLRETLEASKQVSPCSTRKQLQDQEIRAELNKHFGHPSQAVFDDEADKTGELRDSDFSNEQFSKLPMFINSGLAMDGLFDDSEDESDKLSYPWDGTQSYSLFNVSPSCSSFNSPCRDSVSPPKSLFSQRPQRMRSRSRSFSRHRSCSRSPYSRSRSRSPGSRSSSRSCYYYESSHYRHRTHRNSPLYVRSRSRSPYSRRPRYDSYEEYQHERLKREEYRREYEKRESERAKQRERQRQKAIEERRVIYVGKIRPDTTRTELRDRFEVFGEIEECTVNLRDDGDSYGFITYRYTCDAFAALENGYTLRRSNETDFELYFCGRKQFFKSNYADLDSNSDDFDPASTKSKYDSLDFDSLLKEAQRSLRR

Take `O=c1ccc(=O)[nH][nH]1` [Maleic hydrazide]: the “Current Study Human FXRa Activity Human FXRa” value on human FXRα [1] (Agonists, HEK293T, 24 h) was “Inactive”; on human FXRα [1] (setting [9]), “confirmed inactive”. The “Current Study Medaka FXRa2 Activity Medaka FXRa2” value was “Inactive” on medaka FXRα2 [2] (Agonists, HEK293T, 24 h) and “confirmed as inactive” on medaka FXRα2 [2] (setting [9]). Moreover, the “cytotoxicity / toxicity to medaka larvae in agonist exposures” value (shortened to “cytotoxicity / toxicity to medaka larvae”) with medaka larvae was “significant cytotoxicity”. In addition, the “Activity Decision” value in the data set on Human FXRa [3] (setting [10]) is “Inactive”. Further, the “Tox21 Results Human FXRa Activity Human FXRa” value with Human FXRa [3] (ref Tox21 dataset) was “Inactive”.
For orientation: AC50 means the concentration at which the activity in the assay is half-maximal. The EC50 is the concentration that produces a half-maximal response. Higher therefore signals a need for much substance. For the molecule `Cc1c(COC(=O)[C@@H]2[C@H](/C=C(\Cl)C(F)(F)F)C2(C)C)cccc1-c1ccccc1` (racemic) [Bifenthrin], on human FXRα [4], the activity was half-maximal at 34.6 µM (AC50), the “Current Study Human FXRa Activity Human FXRa” value is “Active” and the EC50 turned out to be 34.6 µM. In addition, the AC50 with Human FXRa [5] was 13.3 µM. In addition, in the data set with Human FXRa [5] (ref Tox21 dataset), the “Tox21 Results Human FXRa Activity Human FXRa” value was “Active” and the “Tox21 Results Human FXRa AC50” value was 4.96 µM. For the same molecule, at medaka FXRα2 [6], the “Current Study Medaka FXRa2 Activity Medaka FXRa2” value is listed as “exhibited antagonist activity; also recorded: Active”.
For `COc1nc(NC(C)C)nc(NC(C)C)n1` [Prometon], the “Current Study Human FXRa Activity Human FXRa” value was “Inactive” on human FXRα [1] (Agonists, HEK293T, 24 h) and “confirmed inactive” at human FXRα [1] (setting [11]). Besides, the “Current Study Medaka FXRa2 Activity Medaka FXRa2” value is “Inactive” on medaka FXRα2 [2] (Agonists, HEK293T, 24 h) and “confirmed as inactive” at medaka FXRα2 [2] (setting [11]). Further, the “Activity Decision” value in the data set on Human FXRa [3] (setting [10]) was “Inactive”. Further, in the data set with Human FXRa [3] (ref Tox21 dataset), the “Tox21 Results Human FXRa Activity Human FXRa” value is “Inactive”.
As to Ivermectin [reference compound], the “Current Study Human FXRa Activity Human FXRa” value on human FXRα [4] is “Active”. Besides, the AC50 is 2.35 µM at human FXRα [4] (setting [12]) and 11.2 µM on medaka FXRα2 [6] (read-out: Current Study Medaka FXRa2 AC50). The “Tox21 Results Human FXRa Activity Human FXRa” value in the data set on Human FXRa [5] (ref Tox21 dataset) was “Active”. In addition, the “Current Study Medaka FXRa2 Activity Medaka FXRa2” value at medaka FXRα2 [6] was “Active”.
Turning to `c1ccc(P(c2ccccc2)c2ccccc2)cc1` [Triphenylphosphine], the “cytotoxicity / toxicity to medaka larvae” value in the data set on medaka larvae is recorded as “significant cytotoxicity”.
“VP16 activation domain fused to medaka FXRα2 (pVP16-mFXRα2) (receptor)”: the recruitment with moxidectin, percent (reference as for human FXRα: GW4064 alone) in data set [7] is 126%.
As for `O=C1OC(c2ccc(O)cc2)(c2ccc(O)cc2)c2ccccc21` [Phenolphthalein], the “cytotoxicity / toxicity to medaka larvae” value in the data set on medaka larvae is “significant cytotoxicity; also recorded: toxic to medaka larvae”.
Regarding `CCC(C)(c1ccc(O)cc1)c1ccc(O)cc1` [Bisphenol B], on human FXRα [4], the AC50 came to 11.9 µM, the “Current Study Human FXRa Activity Human FXRa” value is recorded as “Active” and a half-maximal effect (EC50) was put at 11.9 µM. Moreover, the half-maximal activity concentration (AC50) with Human FXRa [5] is 57.2 µM. Also, the “Tox21 Results Human FXRa Activity Human FXRa” value with Human FXRa [5] (ref Tox21 dataset) was “Active”. The “Current Study Medaka FXRa2 Activity Medaka FXRa2” value on medaka FXRα2 [6] is on record as “Active”. Further, the “Current Study Medaka FXRa2 Activity Medaka FXRa2” value on medaka FXRα2 [6] (listed as bisphenol B) is recorded as “exhibited antagonist activity”.
In the case of `CC(C)c1onc(-c2c(Cl)cccc2Cl)c1COc1ccc(C=Cc2cccc(C(=O)O)c2)c(Cl)c1` [GW4064, 3-(2,6-Dichlorophenyl)-4-(3′-carboxy-2-chlorostilben-4-yl) oxymethyl-5-isopropylisoxazole, reference compound], the EC50 at medaka FXRα2 [2] was determined as 269 nM.
As to `C[C@@H]1C[C@H]2O[C@@]3(O[C@@H]2C(C)(C)O)[C@H](O)[C@@]2(C)[C@@H]4CC[C@H]5C(C)(C)[C@@H](O[C@@H]6OC[C@@H](O)[C@H](O)[C@H]6O)CC[C@@]56C[C@@]46CC[C@]2(C)[C@@H]13` [Cimicifugoside], the “Current Study Human FXRa Activity Human FXRa” value on human FXRα [1] is listed as “Active”. Further, the AC50 at human FXRα [1] (setting [12]) worked out at 9.8 µM. Further, the “Current Study Medaka FXRa2 Activity Medaka FXRa2” value at medaka FXRα2 [2] (Agonists, HEK293T, 24 h) is “Active”. Moreover, the AC50 on medaka FXRα2 [2] (read-out: Current Study Medaka FXRa2 AC50, Agonists, HEK293T, 24 h) was above 100 µM. For the same molecule, in the data set with Human FXRa [3] (setting [10]), the AC50 is 5 µM and the “Activity Decision” value is on record as “Active”. Further, in the data set on Human FXRa [3] (ref Tox21 dataset), the “Tox21 Results Human FXRa AC50” value was 5.52 µM and the “Tox21 Results Human FXRa Activity Human FXRa” value is listed as “Active”.
On to `CO/N=C1\C[C@]2(C[C@@H]3C[C@@H](C/C=C(\C)C[C@@H](C)/C=C/C=C4\CO[C@@H]5[C@H](O)C(C)=C[C@@H](C(=O)O3)[C@]45O)O2)O[C@H](/C(C)=C/C(C)C)[C@H]1C` [Moxidectin, reference compound], for which, on human FXRα [4], the AC50 was 12.5 µM, the “Current Study Human FXRa Activity Human FXRa” value is “Active” and the response was half-maximal at 12.5 µM (EC50). Besides, the “Tox21 Results Human FXRa Activity Human FXRa” value in the data set on Human FXRa [5] (ref Tox21 dataset) was “Active/Inactive”. Further, the “Current Study Medaka FXRa2 Activity Medaka FXRa2” value on medaka FXRα2 [6] is reported as “Active”.
Consider `COc1cc2c(c(OC)c1OC)-c1ccc(OC)c(=O)cc1[C@@H](NC(C)=O)CC2` [Colchicine, reference compound], for which, at human FXRα [4], the “Current Study Human FXRa Activity Human FXRa” value is listed as “Inactive”. Besides, in the data set with Human FXRa [5] (ref Tox21 dataset), the “Tox21 Results Human FXRa Activity Human FXRa” value is “Inactive”. Besides, the “Current Study Medaka FXRa2 Activity Medaka FXRa2” value on medaka FXRα2 [6] is “Inactive”.
Take `CCCCCCCC(=O)OCC(COC(=O)CCCCCCC)OC(=O)CCCCCCC` [Tricaprylin]: on human FXRα [4], the “Current Study Human FXRa Activity Human FXRa” value is listed as “Inactive”. Moreover, the “Tox21 Results Human FXRa Activity Human FXRa” value in the data set with Human FXRa [5] (ref Tox21 dataset) is reported as “Inactive”. The “Current Study Medaka FXRa2 Activity Medaka FXRa2” value at medaka FXRα2 [6] is “Active”; at medaka FXRα2 [6] (listed as tricaprylin), “exhibited antagonist activity”.

B1: VP16 activation domain fused to full-length human FXRα (pVP16-hFXRα) (receptor)
chain: T1 sequence (Q96RI1 1-486)
In data set [8], B1 registered a recruitment with moxidectin and GW4064, percent of that with GW4064 alone of 132%.

(Values after publication PMC9637864 (Current Research in Toxicology, 2022).)
